Experimental data from patent US5554608A, “Inhibition of hair growth” (priority 1994, dated 1996).

Tests used:
flank organ hair growth = test: Golden Syrian hamster assay (flank organ hair growth, topical); type: in vivo; details: for Hair Mass (mean ± SEM) Treated: treated flank organ; for % Inhibition (of hair growth): vs vehicle-treated side, mean ± SEM
Description: Male intact Golden Syrian hamsters are considered acceptable models for human beard hair growth in that they display oval shaped flank organs, one on each side, each about 8 mm. in major diameter, which grow thick black and coarse hair similar to human beard hair. These organs produce hair in response to androgens in the hamster. To evaluate the effectiveness of a particular PKC inhibitor, the flank organs of each of a group of hamsters are depilated by applying a thioglycolate based chemical depilatory (Surgex). To one organ of each animal 10-25 μl. of vehicle alone once a day is applied, while to the other organ of each animal an equal amount of vehicle containing a PKC inhibitor is applied. After thirteen applications (one application per day for five days a week), the flank organs are shaved and the amount of recovered hair (hair mass) from each is weighed. Percent-reduction of hair growth is calculated by subtracting the hair mass (mg) value of the test compound treated side from the hair mass value of the vehicle treated side; the delta value obtained is then divided by the hair mass value of the vehicle treated side, and the resultant number is multiplied by 100.
The above-described assay will be referred to herein as the "Golden Syrian hamster" assay.

PKC = PKC activity assay in flank organ hair follicle homogenate (32P phosphorylation of acetylated-myelin basic protein); type: biochemical, Golden Syrian hamster
Description: PKC activity was assayed in hair follicles isolated from flank organs using a commercial assay kit obtained from GIBCO BRL (Gaithersburg, Md.). The assay is based on the phosphorylation (incorporation of ^32 -P into) of acetylated-myelin basic protein. After isolation, the flank organ hair follicles were washed in phosphate-buffered saline and homogenized in a buffer containing 20 mM Tris, pH 7.5, 0.5 mM EDTA, 0.5% Triton X-100, 10 mM β-mercaptoethanol, and 25 μg/each of the protease inhibitors aprotinin and leupeptin. The hair follicle homogenate was added to the PKC reaction mixture at a final concentration of 10-20 μg/assay. The assay also included buffer, H2 O, phospholipid. The assay was performed in the presence or absence of select PKC inhibitors. The reaction mixture volume was 50 μl, the ^32 P-ATP substrate was added in a volume of 10 μl. The reaction proceeded at 32° for 15 minutes, whereupon a 16.3 μL aliquot was removed from the reaction mixture and spotted onto a paper filter. Filters were washed twice in 1% phosphoric acid with gentle shaking for 5 minutes. Filters were then washed twice in H2 O and placed in scintillation vials. ^32 P-Incorporation, a measure of the enzyme activity, was determined using standard liquid scintillation techniques.

[1] = dose 10% in vehicle A, thirteen applications, pH differs per compound (4.0-8.5)
[2] = dose 7.5% in vehicle B, pH 7.5, thirteen applications
[3] = dose 10% in vehicle C, pH 5.5, thirteen applications

Structure (SMILES) | Hair Mass (mean ± SEM) Treated (flank organ hair growth; [1]) | % Inhibition (of hair growth) (flank organ hair growth; [1]) [%] | other results
CN1CCN(CCCN2c3ccccc3Sc3ccc(C(F)(F)F)cc32)CC1 [Trifluoperizine] | 1.03 ± .16 mg | 56 ± 6 | inhibition of PKC activity (PKC; at 500 μM): 42%
CSc1ccc2c(c1)N(CCC1CCCCN1C)c1ccccc1S2 (stereo not drawn) [Thioridazine] | 0.74 ± .07 mg | 68 ± 4 | 
CCCCCCCCCCCCCCCC(=O)OC[C@H](O)[C@H]1OC(=O)C(O)=C1O [L-Ascorbic acid 6-palmitate] | 1.48 ± .14 mg | 46 ± 5 | 
CC1(C)[C@@H](O[C@H]2O[C@H](C(=O)O)[C@@H](O)[C@H](O)[C@H]2O[C@@H]2O[C@H](C(=O)O)[C@@H](O)[C@H](O)[C@H]2O)CC[C@]2(C)[C@H]3C(=O)C=C4[C@@H]5C[C@@](C)(C(=O)O)CC[C@]5(C)CC[C@@]4(C)[C@]3(C)CC[C@@H]12 [Glycyrrhetinic acid glycoside] | 0.94 ± .17 mg | 46 ± 10 | inhibition of PKC activity (PKC; at 200 μM): ~100%
Cc1ccc(N(CC2=NCCN2)c2cccc(O)c2)cc1 [Phentolamine] | 1.61 ± .22 mg | 19 ± 9 | 
CC1(C)[C@@H](O)CC[C@]2(C)[C@H]3C(=O)C=C4[C@@H]5C[C@@](C)(C(=O)O)CC[C@]5(C)CC[C@@]4(C)[C@]3(C)CC[C@@H]12 [18β-Glycyrrhetinic acid] |  |  | Hair Mass (mean ± SEM) Treated (flank organ hair growth; [2]): 1.07 ± .10 mg; % Inhibition (of hair growth) (flank organ hair growth; [2]): 44 ± 6%; inhibition of PKC activity (PKC; at 500 μM): 52%
CC1CNCCN1S(=O)(=O)c1cccc2cnccc12 (stereo not drawn) [H-7, 1(5-isoquinolinylsulfonyl)-2-methylpiperazine] | 0.81 ± .08 mg | 54 ± 3 | inhibition of PKC activity (PKC; at 200 μM): 86%
COc1ccc(CCN(C)CCCC(C#N)(c2ccc(OC)c(OC)c2)C(C)C)cc1OC (stereo not drawn) [Verapamil] | 0.43 ± .05 mg | 69 ± 5 | 
CN(C)CCCN1c2ccccc2CCc2ccccc21 [Imipramine] | 0.94 ± .18 mg | 38 ± 5 | 
COc1cc(/C=C/C(=O)CC(=O)/C=C/c2ccc(O)c(OC)c2)ccc1O [Curcumin] |  |  | Hair Mass (mean ± SEM) Treated (flank organ hair growth; [3]): 0.55 ± .11 mg; % Inhibition (of hair growth) (flank organ hair growth; [3]): 68 ± 5%
